According to patent US5552156A, “Liposomal and micellular stabilization of camptothecin drugs” (Ohio State University, priority 1995, dated 1996):
Where “and” joins values, the source holds several entries; their conditions need not be identical. Equal values may be shown once. Entries after “also recorded” stand apart in the source; their conditions may differ.

Assays:
[1] = HPLC assay of lactone ring hydrolysis, free in PBS or associated with liposomes or micelles; format: physicochemical; settings: for duration of stability when bound to liposomes / lactone hydrolysis when associated with liposomes: DMPC and DMPG liposomes; for duration of stability when bound to liposomes: 0.29M lipid; for C/L drug DMPC Lip. / t1/2 drug DMPC Lip.: DMPC liposomes; for C/L drug DMPG Lip. / t1/2 drug DMPG Lip.: DMPG liposomes; for effect of liposome lysis by sonication: 5 minutes sonication; for biologically active (lactone) form present after 48 hours: associated with DMPC or DMPG liposomes; for carboxylate/lactone ratio (C/L) free drug: final equilibrium; for t1/2 free drug: lactone hydrolysis
Description: A high performance liquid chromatography assay was used to determine the rate of hydrolysis of camptothecin and topotecan free in aqueous solution and to compare such rates with the rate of hydrolysis for the same drugs when bound to the DMPG and DMPC liposome membranes. The assay was conducted under near physiological conditions; the pH was 7.4, the temperature was 37° C. and the ionic strength was physiological. A Spectroflow model 980 fluorescence detector coupled to an HP 3392A integrator which acquired and processed the chromatograms, was used. For camptothecin, an Ultrasphere ODS C-18 250 mm long column was used. The mobile phase consisted of 32% acetonitrile, 67% 0.1M acetate buffer, pH 5.5, and 1% 01.M sodium dodecylsulfate at a flow rate of 1 mL/min. The detector was set to 370 nm excitation wavelength and a 418 nm long pass emission filter. A 1 μM solution of camptothecin in PBS was prepared and incubated at 37° C. Immediately after mixing the drug stock solution with PBS and at intervals of 5 min thereafter, 50 μL aliquots were taken out and mixed with 150 μL methanolic internal standard, 9-toluoylamidocamptothecin and either analyzed immediately or kept cold under dry ice. 150 μL of this mixture was diluted with 125 μL water and 200 μL was injected. The ratio of the peak areas corresponding to the intact lactone form of the camptothecin drug and the internal standard at a particular time was normalized to that at the time of mixing and was considered as the concentration of the intact lactone form.
For topotecan the excitation wavelength was 362 nm and the emission was observed through a 470 long wave pass filter. The stationary phase was Waters Nova-Pak C-18 150mm long column. The mobile phase consisted of 500 mL 0.1M KH2 PO4, 550 mL acetonitrile, 4.2 mL triethylamine (distilled over molecular sieves), 4.44 g sodium dioctylsulfosuccinate (DOSS), and 970 ml water. The pH was adjusted to 6.0 with H3 PO4. Internal standard solution contained 50×10^-9 g acridine from Eastman and 20×10^-3 M DOSS in methanol and was always kept cold at ≤-20° C. Next 150 μL or cold internal standard solution was mixed with 50 μL aliquot containing topotecan, centrifuged for 1 minute and the supernatant was either analyzed immediately or stored at -20° C. for analysis at a later time, within 2 hours. Samples were monitored at time points from 0 minutes, that is, immediately following dissolution, up to 72 hours.
The kinetics of lactone ring hydrolysis for free camptothecin, CMC and topotecan are shown in of FIGS. 7a, 7b and 7c. Analysis of the decay profile for camptothecin, CMC and topotecan free in PBS was accomplished using a nonlinear least squares program.

[2] = as above; format: physicochemical
[3] = Overall association constant by fluorescence anisotropy titration, DMPC liposomes; format: physicochemical; settings: 2 mM drug, 0.29M DMPC
[4] = Iodide quenching of camptothecin fluorescence; format: physicochemical
Source text: Additional evidence that the fluorochrome of the camptothecin drugs penetrates into the membrane of the liposome comes from iodide quenching data. Iodide has an immeasurably small permeation of the liposome membrane and is able to discriminate between camptothecin drug molecules free in solution and those molecules located in the interior of the liposome membrane. These methods have been described in detail in Burke and Tritton, Biochemistry (1985) 24: 5972-5980; G. L. Jendrasiak, Chem. Phys. Lipids 9: 133-146 (1992); and, M. Cranney et al. Biochem. Biophys. ACTA 735, 418-425, which are incorporated herein by reference. The quenching studies were conducted using 0.5M iodide in PBS buffer.
The quenching of fluorescence of both camptothecin free in PBS and liposome membrane bound camptothecin by iodide ions was conducted at a constant halide concentration of 0.5M, in the presence of 2 mM sodium thiosulfate to prevent the oxidation of iodide. The camptothecin concentration was 1×10^-6 M and the iodide concentration was varied from 0 to 0.5M, and the chloride concentration was adjusted accordingly. The quenching experiments for the camptothecin bound to DMPC or DMPG liposome membranes were done at a lipid concentration of 100 mg/mL, so that the fraction of the bound camptothecin was more than 97%.
Fluorescence of the liposome membrane bound camptothecin is quenched to relatively lower extent, for instance, F0 /F, for camptothecin bound to DMPC liposomes is only 4.1 (see Plot C). Also, there is a clear cut upward curvature in the F0 /F vs. [I] plot (curve "A", […]) for camptothecin free in PBS whereas F0 /F vs. [I] plot for camptothecin bound with DMPC membranes is linear. Quenching of fluorescence is believed to proceed via the dynamic (or collisional) and static quenching processes. Fluorescence quenching by a quencher molecule in contact with the fluorophore at the instant of excitation is considered to be static quenching. The static and dynamic quenching processes are separated by the following modified form of the Stern-Volmer equation (Eftink & Ghiron, 1976): […]
where, V is the static quenching constant and Ksv the dynamic or collisional quenching constant. The V and Ksv values were obtained by fitting the quenching data to equation 3 with a value of V which gave the best correlation coefficient for the plot of F0 /Fe^v[Q] vs. [Q]. The upward curvature of the quenching data of free camptothecin free in PBS seen in FIG. 8 could be attributed to the static quenching process. The straight line "B", which is tangential to the F0 /F vs. [I] plot for free camptothecin in PBS, represents the dynamic part of the iodide quenching of camptothecin fluorescence, the slope of which is equal to Ksv (slope=44 3M^-1 where V=14M^-1 correlation coefficient=0.9993). The Stern-Volmer plot for the liposome bound camptothecin is linear, curve "C", FIG. 8, the slope being 6.1M^-1. […] The dashed line represents the static and dynamic quenching components camptothecin free in solution is determined by F0 /F values.

[5] = tested on: lung, breast, and malignant melanoma; settings: background; cited from earlier work
[6] = bound to DMPC liposomes, iodide

Row | SMILES | duration of stability when bound to liposomes [1] | C/L drug DMPC Lip. ([1]; pH 7.4, 37° C.) | t1/2 drug DMPC Lip. ([1]; pH 7.4, 37° C.) [h] | C/L drug DMPG Lip. ([1]; pH 7.4, 37° C.) | t1/2 drug DMPG Lip. ([1]; pH 7.4, 37° C.) [h] | biologically active (lactone) form present after 48 hours [1] | carboxylate/lactone ratio (C/L) free drug ([1]; free in PBS, pH 7.4, 37° C.) | half-life (t1/2) of free drug in PBS ([1]; free in PBS, pH 7.4, 37° C.) | t1/2 free drug ([1]; free in PBS, pH 7.4, 37° C.) [min] | lactone hydrolysis when associated with liposomes [1] | other results
1 | CCC1(O)C(=O)OCc2c1cc1n(c2=O)Cc2cc3c(Cl)c4c(cc3nc2-1)OCO4 (stereo not drawn) [9-chloro-10,11-methylenedioxycamptothecin] | at least 48 hours | ~ 0 | > 72 | ~ 0 | > 72 | more than 97% | 6.4 | approximately 21 min | 21.3 | – | effect of liposome lysis by sonication ([1]; DSPC MLVs): releases 9-chloro-10,11-methylenedioxycamptothecin which is then hydrolysed; effect of liposome lysis by sonication ([1]; DSPC MLVs, listed as CMC): at least partially released and hydrolysed; lactone ring not hydrolysed in pH 5 DSPC liposomes ([1]; DSPC MLVs, internal pH 5): More than 80%
2 | CCC1(O)C(=O)OCc2c1cc1n(c2=O)Cc2cc3cc4c(cc3nc2-1)OCO4 (stereo not drawn) [10,11-methylenedioxycamptothecin] | – | ~ 0 | > 72 | ~ 0 | > 72 | more than 97% | 3.3 | 28.7 min | 28.7 | little hydrolysis even at 48 hours | drug not hydrolysed at about 2.5 hours ([2]; SDS micelles, about 2.5 hours): about 75%; t1/2, octylphenolpolyoxyethylene micelles ([2]; octylphenolpolyoxyethylene micelles, PBS pH 7.4): 90 min; degraded at 1 h ([1]; pH 7.4, free in PBS, less than 1 hour, read-out: drug hydrolyzed in less than 1 hour): > 70%; drug stabilized at 5 hours ([1]; sorbitan mono-oleate micelles, 5 hours): 50%
3 | CCC1(O)C(=O)OCc2c1cc1n(c2=O)Cc2cc3cc(O)ccc3nc2-1 (stereo not drawn) [10-hydroxycamptothecin] | – | – | – | – | – | – | 5.4 | – | 23.9 | – | –
4 | CC[C@@]1(O)C(=O)OCc2c1cc1n(c2=O)Cc2cc3ccccc3nc2-1 [camptothecin] | at least 48 hours | ~ 0 | > 72 | ~ 0 | > 72 | more than 97% | 6.8 | 16.6 min | 16.6 | – | bound camptothecin level at raised drug concentration [3]: 97%; t1/2 drug DSPC Lip. ([2]; DSPC liposomes, pH 7.4, 37° C.): ~ 100 min.; fraction of bound camptothecin in quenching experiments ([4]; DMPC or DMPG, lipid 100 mg/mL): more than 97%; F0/F (iodide quenching), DMPC-bound ([4]; bound to DMPC liposomes, 0.5M iodide): 4.1; dynamic quenching constant Ksv (slope), DMPC-bound [4, 6]: 6.1 M⁻¹ and 6.2 M⁻¹; static quenching constant V, DMPC-bound [4, 6]: 0 M⁻¹; F0/F (iodide quenching), free ([4]; free in PBS pH 7.4, 0.5M iodide): about 54.3; dynamic quenching constant Ksv, free ([4]; free in PBS, iodide): 44.3 M⁻¹; effectiveness against other experimental cancer types [5]: effective against other experimental cancer types such as lung, breast, and malignant melanoma; lactone ring hydrolysis at raised drug concentration ([1]; 2 mM, lipid to drug ratio 150, DMPC): no evidence of lactone ring hydrolysis was observed; C/L drug DSPC Lip. ([1]; DSPC liposomes, pH 7.4, 37° C.): ~ 3.4
5 | CC[C@@]1(O)C(=O)OCc2c1cc1n(c2=O)Cc2cc3c(CN(C)C)c(O)ccc3nc2-1 [topotecan] | – | 3.4 | 1.25 | 0.42 | 1.6 | – | 7.5 | – | 21.1 | some hydrolysis at 1 hour; also recorded: stabilized to a greater degree in DMPG liposomes as compared to DMPC liposomes | –
